Test systems include IGROV1 ovarian; T-47D breast; BT-549 breast; CAKI-1 renal; UACC-257 melanoma; COLO 205 colon; SK-MEL-2 melanoma; KM12 colon; SN12C renal; UO-31 renal.
Assay in all cases: inhibition of tumour cell growth, NCI panel, 48 h

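Protocol summary: plate cells (96-well), add compound at 5 concentrations, incubate 48 h, interpolate endpoints linearly. GI50: concentration for 50% inhibition of growth. At the TGI there is no net growth.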

For `CS(=O)(=O)OCC1OC(n2ccc(NC(=O)c3ccccc3)nc2=O)CC1OS(C)(=O)=O` (centres undefined), the TGI with IGROV1 ovarian, with T-47D breast, with BT-549 breast, in the experiment on CAKI-1 renal, in the experiment with UACC-257 melanoma and in the experiment on COLO 205 colon was over 100 µM each time. For the same molecule, the TGI in the experiment on SK-MEL-2 melanoma, in the experiment with KM12 colon and in the experiment with SN12C renal was over 100 µM each time.

With `CCCCCCc1cc2cc(-c3nc4ccccc4[nH]3)c(=Nc3ccccc3C)oc2cc1O`, the GI50 with IGROV1 ovarian was 2.07 µM; in the experiment on T-47D breast it was 2.12 µM; in the experiment on UO-31 renal, 1.64 µM; with BT-549 breast, 1.83 µM; with CAKI-1 renal, 2.36 µM; in the experiment on UACC-257 melanoma it was 2.6 µM. Besides, the GI50 in the experiment on COLO 205 colon was over 100 µM; in the experiment with SK-MEL-2 melanoma it was 2.75 µM; in the experiment on KM12 colon, 3.27 µM; in the experiment with SN12C renal, 1.73 µM. The TGI with IGROV1 ovarian is 5.89 µM; with T-47D breast it was 5.25 µM; in the experiment with UO-31 renal, 4.49 µM; in the experiment with BT-549 breast it was 3.55 µM; in the experiment with CAKI-1 renal it was 9.74 µM; with UACC-257 melanoma, 7.01 µM. For the same molecule, the TGI in the experiment on COLO 205 colon is over 100 µM; in the experiment with SK-MEL-2 melanoma, 6.61 µM; with KM12 colon, 11.7 µM; in the experiment with SN12C renal, 4.1 µM.

`CCN1/C(=C/C=C/c2n(-c3ccccc3)c3ccc(-c4nc5ccccc5s4)cc3[n+]2CC)N(c2ccccc2)c2ccc(-c3nc4ccccc4s3)cc21`: the GI50 in the experiment on IGROV1 ovarian is 0.75 µM; in the experiment with T-47D breast it was 0.746 µM; in the experiment with UO-31 renal it was 0.622 µM; in the experiment on BT-549 breast, 0.5 µM; with UACC-257 melanoma, 0.539 µM; in the experiment with COLO 205 colon, 0.187 µM. Moreover, the results for the GI50 in the experiment on SK-MEL-2 melanoma, in the experiment with KM12 colon and in the experiment with SN12C renal were 0.89 µM, 1.24 µM and 0.175 µM, respectively. For the same molecule, the TGI was over 50 µM with IGROV1 ovarian; over 50 µM in the experiment with T-47D breast; 3.57 µM in the experiment on UO-31 renal; 3.28 µM in the experiment with BT-549 breast; over 15.4 µM in the experiment on UACC-257 melanoma; 0.919 µM in the experiment on COLO 205 colon. Besides, the TGI is 2.85 µM with SK-MEL-2 melanoma, over 50 µM with KM12 colon and 2.44 µM with SN12C renal.

On to `Nc1ccccc1-c1ccc([N+](=O)[O-])cc1`, for which the GI50 with IGROV1 ovarian is 19 µM; in the experiment on T-47D breast, 3.04 µM; in the experiment with UO-31 renal it was 5.07 µM; in the experiment on BT-549 breast it was 4.54 µM; in the experiment on CAKI-1 renal, 1.71 µM; in the experiment with UACC-257 melanoma, 21.1 µM. The GI50 in the experiment with COLO 205 colon is 10.7 µM; in the experiment on SK-MEL-2 melanoma it was over 100 µM; in the experiment with KM12 colon it was 1.59 µM; in the experiment with SN12C renal, 11.2 µM. The TGI is over 100 µM in the experiment with IGROV1 ovarian; over 100 µM with T-47D breast; over 100 µM with UO-31 renal; 37.1 µM in the experiment on BT-549 breast; over 100 µM in the experiment on CAKI-1 renal; over 100 µM in the experiment with UACC-257 melanoma. Besides, the TGI was 27.2 µM in the experiment with COLO 205 colon, over 100 µM in the experiment on SK-MEL-2 melanoma, 11.4 µM with KM12 colon and over 100 µM in the experiment on SN12C renal.

For `Cn1ccnc1C(=O)/C=C/c1ccc(C(=O)Nc2ccc(S(F)(F)(F)(F)F)cc2)cc1`, the GI50 in the experiment with IGROV1 ovarian was 3.08 µM; in the experiment on T-47D breast it was 0.923 µM; with UO-31 renal it was 2.22 µM; with BT-549 breast it was 2.62 µM; with CAKI-1 renal, 2.1 µM; in the experiment with UACC-257 melanoma, 2.18 µM. Further, the GI50 in the experiment on COLO 205 colon was 2 µM; in the experiment on SK-MEL-2 melanoma, over 14.3 µM; in the experiment on KM12 colon, 2.77 µM; in the experiment on SN12C renal it was 2.77 µM. Besides, the TGI with IGROV1 ovarian, in the experiment on T-47D breast, with UO-31 renal, in the experiment with BT-549 breast, in the experiment on CAKI-1 renal and in the experiment on UACC-257 melanoma was over 14.3 µM each time. The TGI in the experiment on COLO 205 colon is 12.3 µM; with SK-MEL-2 melanoma, over 14.3 µM; in the experiment with KM12 colon, over 14.3 µM; with SN12C renal, over 14.3 µM.

With `N#C/C(=N\Nc1ccc(Cl)cc1)C(=O)Nc1cc(-c2ccccc2)nn1-c1ccccc1`, the GI50 in the experiment on IGROV1 ovarian is 4.12 µM; with T-47D breast, 2.01 µM; in the experiment on UO-31 renal it was 2.93 µM; with BT-549 breast, 2.52 µM; in the experiment with UACC-257 melanoma it was 2.35 µM; with COLO 205 colon, 2.07 µM. The GI50 in the experiment with SK-MEL-2 melanoma is 2.39 µM; with KM12 colon it was 2.92 µM; in the experiment on SN12C renal, 2.44 µM. In addition, the TGI with IGROV1 ovarian is over 100 µM; with T-47D breast, 7.12 µM; in the experiment with UO-31 renal it was over 100 µM; in the experiment on BT-549 breast it was 7.18 µM; in the experiment on UACC-257 melanoma, 8.62 µM; in the experiment with COLO 205 colon, 4.51 µM. In addition, the results for the TGI in the experiment on SK-MEL-2 melanoma, with KM12 colon and in the experiment on SN12C renal were 8.89 µM, over 100 µM and over 100 µM, respectively.

On to `CC(=O)CCc1ccc(OC2OC(COC(=O)c3cc(O)c(O)c(O)c3)C(O)C(O)C2OC(=O)/C=C/c2ccccc2)cc1` (centres undefined), for which the GI50 in the experiment on IGROV1 ovarian was 19 µM; in the experiment with T-47D breast it was 26.1 µM; with UO-31 renal, 30.2 µM; with BT-549 breast, 35.6 µM; in the experiment with CAKI-1 renal it was 29.7 µM; with COLO 205 colon it was 28.1 µM. For the same molecule, the GI50 in the experiment with SK-MEL-2 melanoma was 20.2 µM; in the experiment with KM12 colon it was 21 µM; with SN12C renal, 20.4 µM. Besides, the TGI in the experiment on IGROV1 ovarian was 38.6 µM; with T-47D breast it was over 100 µM; in the experiment on UO-31 renal it was over 100 µM; with BT-549 breast, 64.6 µM; with CAKI-1 renal, over 100 µM; in the experiment with COLO 205 colon, 89.4 µM. Further, the results for the TGI in the experiment with SK-MEL-2 melanoma, with KM12 colon and in the experiment with SN12C renal were 43 µM, 43.5 µM and 44.4 µM, respectively.

As to `O=c1cc(-c2ccccc2)oc2cc(O)c(O)c(O)c12`, the GI50 in the experiment on T-47D breast is 23.7 µM; in the experiment on UO-31 renal it was 13.9 µM; in the experiment on BT-549 breast, 13.6 µM; with CAKI-1 renal, 4.57 µM; in the experiment with UACC-257 melanoma, 39 µM; in the experiment on SK-MEL-2 melanoma it was 53.9 µM. The figures for the GI50 in the experiment on KM12 colon and with SN12C renal were 18.2 µM and 8.8 µM, respectively. The TGI in the experiment on T-47D breast was over 100 µM; in the experiment on UO-31 renal, over 100 µM; with BT-549 breast it was 87.5 µM; with CAKI-1 renal, 19 µM; with UACC-257 melanoma it was over 100 µM; with SK-MEL-2 melanoma it was over 100 µM. In addition, the TGI was found to be 62.5 µM in the experiment on KM12 colon and 26 µM with SN12C renal.

The values above are taken from PubChem BioAssay (NCI).
